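The compound was tested at five concentrations on cells cultured in 96-well plates, with a 48-hour exposure period. GI50: concentration for 50% inhibition of growth.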 Active and inactive are the calls of the source. Cut-off read from the data, not from the text of the source: active = GI50 up to about 1.1 µM and inactive = higher.
What was measured:
Test in all cases: growth of human tumour cells (NCI), 48 h
[1] = test system: A549
[2] = test system: IGROV-1
[3] = test system: HL-60
[4] = test system: OVCAR-8
[5] = test system: DLD-1
[6] = test system: SR
[7] = test system: SF-268
[8] = test system: RPMI-8226
[9] = test system: OVCAR-4
[10] = test system: NCI-H226
[11] = test system: EKVX
[12] = test system: UACC-257
[13] = test system: HOP-92
[14] = test system: RXF 393
[15] = test system: PC-3
[16] = test system: DU-145
[17] = test system: MDA-MB-435
[18] = test system: T47D
[19] = test system: MDA-N
[20] = test system: MDA-MB-231

SMILES: O=C1C2Cc3ccccc3CN2C(=O)N1CCN1CCOCC1 (stereo not drawn)
- GI50 [1]: > 100 µM (inactive)
- GI50 [2]: > 100 µM (inactive)
- GI50 [3]: > 100 µM (inactive)
- GI50 [4]: > 100 µM (inactive)
- GI50 [5]: > 100 µM (inactive)
- GI50 [6]: > 100 µM (inactive)
- GI50 [7]: > 100 µM (inactive)
- GI50 [8]: > 100 µM (inactive)
- GI50 [9]: > 100 µM (inactive)
- GI50 [10]: > 100 µM (inactive)

SMILES: N=C(N)NS(=O)(=O)c1ccc(Nc2c3ccccc3nc3c(C(=O)Nc4ccc(S(N)(=O)=O)cc4)cccc23)cc1
- GI50 [1]: > 100 µM (inactive)
- GI50 [2]: > 100 µM (inactive)
- GI50 [3]: 88.1 µM (inactive)
- GI50 [4]: > 100 µM (inactive)
- GI50 [5]: > 100 µM (inactive)
- GI50 [11]: > 100 µM (inactive)
- GI50 [12]: > 100 µM (inactive)
- GI50 [7]: 98.9 µM (inactive)
- GI50 [13]: 47.9 µM (inactive)
- GI50 [14]: 95.3 µM (inactive)
- GI50 [8]: > 100 µM (inactive)
- GI50 [9]: > 100 µM (inactive)

SMILES: CNC(=O)ON(C(C)=O)C(=O)NC [CARACEMIDE]
- GI50 [1]: 92.3 µM (inactive)
- GI50 [2]: 86.9 µM (inactive)
- GI50 [4]: 78.3 µM (inactive)
- GI50 [5]: 95.1 µM (inactive)
- GI50 [15]: 26.5 µM (inactive)
- GI50 [16]: 41.3 µM (inactive)
- GI50 [6]: 28.1 µM (inactive)
- GI50 [17]: 15.3 µM (inactive)
- GI50 [18]: 9.38 µM (inactive)
- GI50 [12]: 69.5 µM (inactive)
- GI50 [7]: 75 µM (inactive)
- GI50 [13]: 17.9 µM (inactive)
- GI50 [14]: 34.3 µM (inactive)
- GI50 [19]: 15.8 µM (inactive)
- GI50 [9]: 63.8 µM (inactive)
- GI50 [10]: 95.1 µM (inactive)

SMILES: O=C1/C(=N\O)S(=O)(=O)c2ccccc21
- GI50 [1]: > 100 µM (inactive)
- GI50 [2]: > 100 µM (inactive)
- GI50 [3]: > 100 µM (inactive)
- GI50 [4]: > 100 µM (inactive)
- GI50 [5]: > 100 µM (inactive)
- GI50 [6]: > 100 µM (inactive)
- GI50 [12]: > 100 µM (inactive)
- GI50 [7]: > 100 µM (inactive)
- GI50 [13]: > 100 µM (inactive)
- GI50 [14]: > 100 µM (inactive)
- GI50 [8]: > 100 µM (inactive)
- GI50 [9]: > 100 µM (inactive)
- GI50 [10]: > 100 µM (inactive)

SMILES: CCC(/C=C/c1ccccc1)=N\N=C(\C=C\c1ccccc1)CC
- GI50 [1]: > 100 µM (inactive)
- GI50 [2]: > 100 µM (inactive)
- GI50 [3]: > 100 µM (inactive)
- GI50 [4]: > 100 µM (inactive)
- GI50 [5]: > 100 µM (inactive)
- GI50 [11]: > 100 µM (inactive)
- GI50 [6]: > 100 µM (inactive)
- GI50 [12]: > 100 µM (inactive)
- GI50 [7]: > 100 µM (inactive)
- GI50 [8]: > 100 µM (inactive)
- GI50 [9]: > 100 µM (inactive)
- GI50 [10]: > 100 µM (inactive)

SMILES: COc1cc(CCNC2=CC(=O)c3nc[nH]c3C2=O)ccc1O
- GI50 [1]: 26.6 µM (inactive)
- GI50 [20]: 30.9 µM (inactive)
- GI50 [2]: 23.2 µM (inactive)
- GI50 [3]: 25.6 µM (inactive)
- GI50 [4]: 19.6 µM (inactive)
- GI50 [15]: 26.4 µM (inactive)
- GI50 [11]: 21.2 µM (inactive)
- GI50 [16]: 20 µM (inactive)
- GI50 [6]: 30.7 µM (inactive)
- GI50 [17]: 17.6 µM (inactive)
- GI50 [18]: 20.7 µM (inactive)
- GI50 [12]: 19.8 µM (inactive)
- GI50 [7]: 38.9 µM (inactive)
- GI50 [13]: 25.3 µM (inactive)
- GI50 [14]: 43.2 µM (inactive)
- GI50 [8]: 29.4 µM (inactive)
- GI50 [19]: 18 µM (inactive)
- GI50 [9]: 15.4 µM (inactive)
- GI50 [10]: 31.5 µM (inactive)

SMILES: O=c1cccccc1NCCCCCCCCNc1cccccc1=O
- GI50 [1]: 39.9 µM (inactive)
- GI50 [2]: 94.2 µM (inactive)
- GI50 [3]: 3.53 µM (inactive)
- GI50 [4]: > 100 µM (inactive)
- GI50 [5]: > 100 µM (inactive)
- GI50 [11]: 24.9 µM (inactive)
- GI50 [6]: 17.8 µM (inactive)
- GI50 [12]: > 100 µM (inactive)
- GI50 [7]: > 100 µM (inactive)
- GI50 [13]: 22.9 µM (inactive)
- GI50 [14]: > 100 µM (inactive)
- GI50 [8]: 6.56 µM (inactive)
- GI50 [10]: > 100 µM (inactive)

SMILES: N#C[BH2-][n+]1cn(C2CC(OP(=O)(O)OCC3OC(n4cnc5c(=O)[nH]c(N)nc54)CC3O)C(CO)O2)c2nc(N)[nH]c(=O)c21 (stereo not drawn)
- GI50 [1]: > 100 µM (inactive)
- GI50 [20]: > 100 µM (inactive)
- GI50 [2]: > 100 µM (inactive)
- GI50 [3]: > 100 µM (inactive)
- GI50 [4]: > 100 µM (inactive)
- GI50 [15]: > 100 µM (inactive)
- GI50 [11]: > 100 µM (inactive)
- GI50 [16]: > 100 µM (inactive)
- GI50 [6]: > 100 µM (inactive)
- GI50 [17]: > 100 µM (inactive)
- GI50 [18]: > 100 µM (inactive)
- GI50 [12]: > 100 µM (inactive)
- GI50 [7]: 44.4 µM (inactive)
- GI50 [13]: > 100 µM (inactive)
- GI50 [14]: > 100 µM (inactive)
- GI50 [8]: > 100 µM (inactive)
- GI50 [19]: > 100 µM (inactive)
- GI50 [9]: > 100 µM (inactive)
- GI50 [10]: > 100 µM (inactive)

SMILES: COC1(CC[C@@H](C)COC2OC(CO)C(O)C(O)C2O)O[C@H]2C[C@H]3[C@@H]4CC=C5C[C@@H](OC6OC(CO)C(O)C(OC7OC(CO)C(O)C(O)C7O)C6OC6OC(C)C(O)C(O)C6O)CC[C@]5(C)[C@H]4CC[C@]3(C)[C@H]2[C@@H]1C (stereo partly drawn)
- GI50 [1]: 2.68 µM (inactive)
- GI50 [20]: 0.885 µM (active)
- GI50 [2]: 7.24 µM (inactive)
- GI50 [3]: 6.19 µM (inactive)
- GI50 [4]: 8.77 µM (inactive)
- GI50 [15]: 6.82 µM (inactive)
- GI50 [11]: 15.9 µM (inactive)
- GI50 [16]: 3.97 µM (inactive)
- GI50 [6]: 23.5 µM (inactive)
- GI50 [17]: 2.77 µM (inactive)
- GI50 [18]: 4.67 µM (inactive)
- GI50 [12]: 11 µM (inactive)
- GI50 [7]: 10.2 µM (inactive)
- GI50 [13]: 2.46 µM (inactive)
- GI50 [14]: 5.71 µM (inactive)
- GI50 [8]: 32.2 µM (inactive)
- GI50 [19]: 8.63 µM (inactive)
- GI50 [9]: 9.91 µM (inactive)
- GI50 [10]: 9.95 µM (inactive)

Reference: ChEMBL document CHEMBL1201862, “PubChem BioAssay data set” (2004)
